This note sets out measurements from ChEMBL document CHEMBL4507266, “Data for DCP probe BAY-784” (2021).

The target in series [1] is T1, D(1A) dopamine receptor (Homo sapiens, UniProt P21728). Put plainly: GPCRScan assay: inhibition of D1. Also noted: radioligand conc. used [nm] 0.6 – 1.3, parental cells HEKT.
In series [2] the target is Gonadotropin-releasing hormone receptor (Homo sapiens, UniProt P30968). Put plainly: Mechanistic assay measuring cellular IP1. The series is classed as functional.
The species named for series [3] is Rattus norvegicus. Nature of the series: Testosterone Eurofins-Panlabs radioligand binding assay. Also noted: ligand concentration 1.5 nM. The conditions noted are these: Compound concentration 10.0 uM.
Series [4] deals with B2 bradykinin receptor (Homo sapiens) (UniProt P30411). The conditions noted are these: Compound concentration 10.0 uM.
Sequence of B2 bradykinin receptor (Homo sapiens) (P30411 whole entry): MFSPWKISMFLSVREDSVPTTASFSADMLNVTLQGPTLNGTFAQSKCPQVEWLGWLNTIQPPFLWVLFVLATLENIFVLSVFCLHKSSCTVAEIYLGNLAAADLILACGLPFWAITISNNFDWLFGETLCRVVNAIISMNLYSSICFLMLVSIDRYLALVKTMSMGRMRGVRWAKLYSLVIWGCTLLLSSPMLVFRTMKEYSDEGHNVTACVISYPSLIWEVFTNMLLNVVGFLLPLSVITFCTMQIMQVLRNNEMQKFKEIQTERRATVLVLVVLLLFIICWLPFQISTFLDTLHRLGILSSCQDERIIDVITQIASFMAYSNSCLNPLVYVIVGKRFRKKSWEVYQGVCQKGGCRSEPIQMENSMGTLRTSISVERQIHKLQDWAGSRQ
For another series, the species on record is Mus musculus. Nature of the series: Inhibition of Phorbol Ester at 10 µM in the Eurofins-Panlabs radioligand binding assay (Eurofins_assay_264500). The conditions noted are these: Compound concentration 10.0 uM. Also noted: ligand concentration 3 nM.
The nature of series [5]: Inhibition of Platelet-Derived Growth Factor (PDGF) at 10 µM in the Eurofins-Panlabs radioligand binding assay (Eurofins_assay_265200). The conditions noted are these: Compound concentration 10 uM; Detection method Radioligand Binding; Incubation temperature 25 °C; Incubation time 45 min; Ligand [3H]PDGF; Ligand concentration 0.02 nM; Non-specific ligand with concentration 10 nM PDGF; Source of protein Swiss mouse 3T3 embryo cells.

In series [6] the target is Type-2 angiotensin II receptor (Homo sapiens) (UniProt P50052). The conditions noted are these: Compound concentration 10.0 uM.
A further series addresses CYP2C9 (Homo sapiens, UniProt P11712). Nature of the series: CYP450, 2C9 Eurofins-Panlabs enzyme assay. The conditions noted are these: compound concentration 10 uM.
Series [7] addresses T2, Muscarinic acetylcholine receptor M5 (Homo sapiens) (UniProt P08912).
T2 sequence (whole entry): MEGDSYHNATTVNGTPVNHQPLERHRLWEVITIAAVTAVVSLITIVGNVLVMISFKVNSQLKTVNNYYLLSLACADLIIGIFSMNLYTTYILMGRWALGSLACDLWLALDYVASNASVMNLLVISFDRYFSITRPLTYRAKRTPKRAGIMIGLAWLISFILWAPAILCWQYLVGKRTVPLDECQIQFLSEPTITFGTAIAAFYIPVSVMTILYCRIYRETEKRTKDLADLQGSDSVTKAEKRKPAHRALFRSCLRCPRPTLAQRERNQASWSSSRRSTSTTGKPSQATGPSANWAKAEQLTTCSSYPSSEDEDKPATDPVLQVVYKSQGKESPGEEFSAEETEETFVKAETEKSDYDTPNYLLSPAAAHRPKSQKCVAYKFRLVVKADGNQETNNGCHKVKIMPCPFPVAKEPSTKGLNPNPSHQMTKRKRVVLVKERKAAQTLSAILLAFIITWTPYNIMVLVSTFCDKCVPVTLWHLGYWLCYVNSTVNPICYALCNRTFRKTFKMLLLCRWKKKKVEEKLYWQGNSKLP
Nature of the series: Inhibition of Muscarinic M5 at 10 µM in the Eurofins-Panlabs radioligand binding assay (Eurofins_assay_253010). The conditions noted are these: Compound concentration 10.0 uM. Also noted: ligand concentration 0.8 nM.

For series [8], the target named is Mitogen-activated protein kinase 14 (Homo sapiens) (UniProt Q16539). Nature of the series: Inhibition of Protein Serine/Threonine Kinase, MAPK14 (p38α) at 10 µM in the Eurofins-Panlabs enzyme assay (Eurofins_assay_176610). Set-up: substrate with concentration. The conditions noted are these: Compound concentration 10.0 uM.
Sequence of Mitogen-activated protein kinase 14 (Homo sapiens) (Q16539 whole entry): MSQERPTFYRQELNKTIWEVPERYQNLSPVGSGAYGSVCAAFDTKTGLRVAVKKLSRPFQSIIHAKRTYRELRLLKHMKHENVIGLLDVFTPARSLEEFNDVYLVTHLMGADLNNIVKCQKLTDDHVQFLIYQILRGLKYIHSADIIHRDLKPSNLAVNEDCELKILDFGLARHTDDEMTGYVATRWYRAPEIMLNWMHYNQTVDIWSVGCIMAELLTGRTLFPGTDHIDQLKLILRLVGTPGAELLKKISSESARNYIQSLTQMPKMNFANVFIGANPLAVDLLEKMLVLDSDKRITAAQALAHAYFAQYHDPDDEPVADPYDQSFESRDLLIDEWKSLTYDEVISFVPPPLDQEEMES
Series [9] concerns the target T1, D(1A) dopamine receptor. The conditions noted are these: Compound concentration 10.0 uM.
Series [10] deals with Receptor-type tyrosine-protein phosphatase C (Homo sapiens) (UniProt P08575). Put plainly: Inhibition of Protein Tyrosine Phosphatase, PTPRC (CD45) at 10 µM in the Eurofins-Panlabs enzyme assay (Eurofins_assay_190010). The conditions noted are these: Compound concentration 10.0 uM.
Sequence of Receptor-type tyrosine-protein phosphatase C (Homo sapiens) (P08575 whole entry): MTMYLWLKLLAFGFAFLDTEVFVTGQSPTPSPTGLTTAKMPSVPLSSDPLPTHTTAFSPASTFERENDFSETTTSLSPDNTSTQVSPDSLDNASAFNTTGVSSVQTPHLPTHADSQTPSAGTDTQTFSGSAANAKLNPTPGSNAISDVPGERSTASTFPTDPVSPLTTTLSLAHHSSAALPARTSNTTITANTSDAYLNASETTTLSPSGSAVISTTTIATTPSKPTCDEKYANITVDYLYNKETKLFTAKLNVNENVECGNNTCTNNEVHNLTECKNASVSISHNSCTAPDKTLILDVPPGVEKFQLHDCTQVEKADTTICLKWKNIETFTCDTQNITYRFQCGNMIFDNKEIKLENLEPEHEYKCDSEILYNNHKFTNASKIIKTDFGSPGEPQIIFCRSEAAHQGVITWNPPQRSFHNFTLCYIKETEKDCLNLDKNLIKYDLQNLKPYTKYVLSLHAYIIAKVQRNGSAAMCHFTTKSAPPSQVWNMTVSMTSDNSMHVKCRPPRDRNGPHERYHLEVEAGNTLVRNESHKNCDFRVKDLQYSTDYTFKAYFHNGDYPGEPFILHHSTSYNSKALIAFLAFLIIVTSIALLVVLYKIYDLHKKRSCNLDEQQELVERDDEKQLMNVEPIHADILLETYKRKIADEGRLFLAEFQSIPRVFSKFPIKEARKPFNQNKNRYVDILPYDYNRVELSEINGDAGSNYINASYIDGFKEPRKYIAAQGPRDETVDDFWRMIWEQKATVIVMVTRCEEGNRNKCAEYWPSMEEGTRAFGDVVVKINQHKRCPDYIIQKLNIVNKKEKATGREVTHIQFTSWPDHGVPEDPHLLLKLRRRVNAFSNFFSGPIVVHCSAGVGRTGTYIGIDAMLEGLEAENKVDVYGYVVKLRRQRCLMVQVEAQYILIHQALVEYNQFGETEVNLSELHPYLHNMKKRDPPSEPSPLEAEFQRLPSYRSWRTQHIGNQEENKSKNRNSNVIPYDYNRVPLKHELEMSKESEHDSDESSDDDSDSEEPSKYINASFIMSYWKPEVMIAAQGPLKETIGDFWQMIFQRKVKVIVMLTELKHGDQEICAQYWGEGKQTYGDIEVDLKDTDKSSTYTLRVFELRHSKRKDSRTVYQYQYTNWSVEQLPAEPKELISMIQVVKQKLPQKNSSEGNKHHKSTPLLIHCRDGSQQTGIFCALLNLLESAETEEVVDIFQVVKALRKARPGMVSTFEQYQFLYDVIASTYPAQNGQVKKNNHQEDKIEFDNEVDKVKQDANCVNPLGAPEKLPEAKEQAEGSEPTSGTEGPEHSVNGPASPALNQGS
Series [11] concerns the target T3, 5-hydroxytryptamine receptor 2C (Homo sapiens) (UniProt P28335).
T3 sequence (whole entry): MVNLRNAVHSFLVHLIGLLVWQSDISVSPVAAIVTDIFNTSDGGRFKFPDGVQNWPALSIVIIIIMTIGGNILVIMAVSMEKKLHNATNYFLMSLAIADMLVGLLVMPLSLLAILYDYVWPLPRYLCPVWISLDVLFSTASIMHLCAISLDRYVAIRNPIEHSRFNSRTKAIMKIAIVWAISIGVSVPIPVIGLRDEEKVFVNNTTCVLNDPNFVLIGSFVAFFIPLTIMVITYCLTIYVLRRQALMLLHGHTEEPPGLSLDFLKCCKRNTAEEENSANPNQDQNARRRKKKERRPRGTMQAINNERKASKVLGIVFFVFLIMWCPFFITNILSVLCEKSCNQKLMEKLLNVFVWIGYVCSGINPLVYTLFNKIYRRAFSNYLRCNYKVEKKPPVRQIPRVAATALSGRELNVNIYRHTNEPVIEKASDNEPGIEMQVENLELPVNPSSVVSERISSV
The conditions noted are these: Compound concentration 10.0 uM.

The target in series [12] is Acetylcholinesterase (Homo sapiens) (UniProt P22303). The conditions noted are these: Compound concentration 10.0 uM.
Sequence of Acetylcholinesterase (Homo sapiens) (P22303 whole entry): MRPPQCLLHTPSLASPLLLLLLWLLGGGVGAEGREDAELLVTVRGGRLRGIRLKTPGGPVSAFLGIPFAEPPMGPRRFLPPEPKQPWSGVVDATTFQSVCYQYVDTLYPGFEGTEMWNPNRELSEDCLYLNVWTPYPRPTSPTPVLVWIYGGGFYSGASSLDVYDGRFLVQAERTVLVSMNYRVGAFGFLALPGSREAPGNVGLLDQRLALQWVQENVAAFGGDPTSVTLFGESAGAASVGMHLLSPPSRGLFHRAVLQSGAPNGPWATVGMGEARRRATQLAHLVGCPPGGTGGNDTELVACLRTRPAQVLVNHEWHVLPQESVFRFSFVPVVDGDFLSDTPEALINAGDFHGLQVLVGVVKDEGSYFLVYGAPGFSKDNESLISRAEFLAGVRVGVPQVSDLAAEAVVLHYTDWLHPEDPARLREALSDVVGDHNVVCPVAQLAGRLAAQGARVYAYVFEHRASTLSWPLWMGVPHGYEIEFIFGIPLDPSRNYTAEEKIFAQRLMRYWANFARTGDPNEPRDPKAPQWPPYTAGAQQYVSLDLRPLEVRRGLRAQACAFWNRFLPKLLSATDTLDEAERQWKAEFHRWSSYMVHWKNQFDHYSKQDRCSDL
Another series is filed under the species Sus scrofa. Put plainly: Inhibition of ATPase, Na+/K+, Heart at compound concentration of 10.0 uM in the Eurofins-Panlabs enzyme assay (Eurofins_assay_107710). Also noted: substrate with concentration. The conditions noted are these: Compound concentration 10.0 uM.
The target of series [13] is Adenosine Transporter (Cavia porcellus) (UniProt H0V4R7+H0UUG1+H0V3Z5). Put plainly: Inhibition of Transporter, Adenosine at compound concentration of 10.0 uM in the Eurofins-Panlabs radioligand binding assay (Eurofins_assay_202000). Type of series: protein assay. Set-up: ligand concentration 0.5 nM, non-specific ligand with concentration 5 uM Nitrobenzylthioinosine, incubation time 30 min, incubation temperature 25 C. The conditions noted are these: Compound concentration 10.0 uM.

The target in series [14] is Sodium-dependent noradrenaline transporter (Homo sapiens) (UniProt P23975). The conditions noted are these: Compound concentration 10.0 uM.
Sequence of Sodium-dependent noradrenaline transporter (Homo sapiens) (P23975 whole entry): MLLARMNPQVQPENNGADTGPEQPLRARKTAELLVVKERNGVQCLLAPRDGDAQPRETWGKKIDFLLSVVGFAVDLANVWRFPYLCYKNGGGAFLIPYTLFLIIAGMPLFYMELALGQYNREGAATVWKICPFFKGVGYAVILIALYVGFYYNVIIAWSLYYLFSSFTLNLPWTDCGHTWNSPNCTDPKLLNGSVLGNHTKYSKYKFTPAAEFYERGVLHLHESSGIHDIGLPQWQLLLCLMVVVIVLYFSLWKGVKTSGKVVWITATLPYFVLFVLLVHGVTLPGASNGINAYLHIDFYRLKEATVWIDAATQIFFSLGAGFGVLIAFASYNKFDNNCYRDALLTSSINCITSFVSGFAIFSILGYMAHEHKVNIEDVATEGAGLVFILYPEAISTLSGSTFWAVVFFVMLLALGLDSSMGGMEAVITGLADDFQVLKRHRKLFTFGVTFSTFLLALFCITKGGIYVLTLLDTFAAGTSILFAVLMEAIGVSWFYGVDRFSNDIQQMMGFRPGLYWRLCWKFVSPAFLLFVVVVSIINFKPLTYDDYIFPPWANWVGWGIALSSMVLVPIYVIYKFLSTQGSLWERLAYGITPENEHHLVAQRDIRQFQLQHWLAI
In series [15] the target is Endothelin-1 receptor (Homo sapiens) (UniProt P25101). The conditions noted are these: Compound concentration 10.0 uM.
Series [16] is filed under the species Rattus norvegicus. The conditions noted are these: Compound concentration 10.0 uM.
Series [17] concerns the target Carbonic anhydrase 2 (Homo sapiens) (UniProt P00918). Put plainly: Inhibition of Carbonic Anhydrase II at compound concentration of 10.0 uM in the Eurofins-Panlabs enzyme assay (Eurofins_assay_112020). The conditions noted are these: Compound concentration 10.0 uM. Set-up: substrate with concentration.
The target of series [18] is T4, Muscarinic acetylcholine receptor M1 (Homo sapiens) (UniProt P11229).
T4 sequence (whole entry): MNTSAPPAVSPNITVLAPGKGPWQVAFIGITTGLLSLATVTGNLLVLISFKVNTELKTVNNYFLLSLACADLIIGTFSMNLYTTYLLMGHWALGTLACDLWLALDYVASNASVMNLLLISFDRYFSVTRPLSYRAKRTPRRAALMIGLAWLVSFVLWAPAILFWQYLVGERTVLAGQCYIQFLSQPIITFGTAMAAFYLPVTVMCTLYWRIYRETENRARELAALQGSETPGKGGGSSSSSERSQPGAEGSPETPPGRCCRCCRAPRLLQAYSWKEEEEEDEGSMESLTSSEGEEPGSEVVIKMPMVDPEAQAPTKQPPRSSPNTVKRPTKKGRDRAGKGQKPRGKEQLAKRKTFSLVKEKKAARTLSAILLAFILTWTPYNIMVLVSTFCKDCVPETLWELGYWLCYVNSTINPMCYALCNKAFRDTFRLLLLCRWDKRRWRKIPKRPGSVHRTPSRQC
The conditions noted are these: Compound concentration 10.0 uM.

Series [19] deals with Muscarinic acetylcholine receptor M3 (Homo sapiens) (UniProt P20309). The conditions noted are these: Compound concentration 10.0 uM.
Sequence of Muscarinic acetylcholine receptor M3 (Homo sapiens) (P20309 whole entry, looked up): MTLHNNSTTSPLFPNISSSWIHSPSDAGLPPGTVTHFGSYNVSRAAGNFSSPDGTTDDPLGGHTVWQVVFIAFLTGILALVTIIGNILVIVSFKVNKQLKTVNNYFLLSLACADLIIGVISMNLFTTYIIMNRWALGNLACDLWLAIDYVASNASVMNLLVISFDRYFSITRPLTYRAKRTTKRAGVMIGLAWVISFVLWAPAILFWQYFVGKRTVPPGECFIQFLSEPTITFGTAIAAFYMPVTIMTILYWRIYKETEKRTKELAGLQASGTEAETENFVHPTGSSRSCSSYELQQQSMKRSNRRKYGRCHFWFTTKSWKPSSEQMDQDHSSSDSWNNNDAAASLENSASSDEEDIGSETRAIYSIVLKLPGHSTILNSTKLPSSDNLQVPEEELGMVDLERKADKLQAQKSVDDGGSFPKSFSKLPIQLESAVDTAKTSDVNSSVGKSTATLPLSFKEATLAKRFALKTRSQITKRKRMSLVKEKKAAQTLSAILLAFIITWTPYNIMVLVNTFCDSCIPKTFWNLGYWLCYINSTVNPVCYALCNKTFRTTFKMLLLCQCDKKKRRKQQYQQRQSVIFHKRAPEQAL

T1 sequence (P21728 whole entry): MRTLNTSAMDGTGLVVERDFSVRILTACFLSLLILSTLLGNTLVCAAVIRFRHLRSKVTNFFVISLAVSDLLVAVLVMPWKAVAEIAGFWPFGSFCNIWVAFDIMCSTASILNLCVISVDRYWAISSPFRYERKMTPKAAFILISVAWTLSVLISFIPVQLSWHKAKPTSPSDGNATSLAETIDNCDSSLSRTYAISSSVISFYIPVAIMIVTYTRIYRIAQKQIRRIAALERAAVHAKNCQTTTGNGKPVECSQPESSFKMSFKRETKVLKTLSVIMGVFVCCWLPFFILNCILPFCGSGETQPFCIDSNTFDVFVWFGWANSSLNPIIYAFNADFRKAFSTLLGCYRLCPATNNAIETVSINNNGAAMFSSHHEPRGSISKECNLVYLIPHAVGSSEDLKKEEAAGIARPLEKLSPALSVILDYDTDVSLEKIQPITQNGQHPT
Sequence of CYP2C9 (P11712 whole entry): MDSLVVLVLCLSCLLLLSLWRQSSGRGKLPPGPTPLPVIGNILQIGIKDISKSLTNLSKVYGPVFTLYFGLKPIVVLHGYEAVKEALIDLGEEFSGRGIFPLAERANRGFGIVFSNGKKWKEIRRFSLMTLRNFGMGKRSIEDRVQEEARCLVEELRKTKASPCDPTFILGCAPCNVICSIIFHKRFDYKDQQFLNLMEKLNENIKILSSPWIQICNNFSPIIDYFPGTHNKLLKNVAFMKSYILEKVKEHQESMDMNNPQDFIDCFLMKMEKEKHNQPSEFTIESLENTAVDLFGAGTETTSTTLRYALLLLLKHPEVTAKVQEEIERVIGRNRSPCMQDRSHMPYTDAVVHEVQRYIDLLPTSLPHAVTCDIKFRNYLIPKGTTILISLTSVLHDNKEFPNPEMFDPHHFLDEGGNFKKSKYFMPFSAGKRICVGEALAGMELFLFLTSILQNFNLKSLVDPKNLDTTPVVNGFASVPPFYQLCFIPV

The Ki is a dissociation constant, usually derived from enzyme kinetics or from competition with a known ligand. In general, IC50 refers to the midpoint of a concentration-inhibition curve. A high value points to a need for much substance. Regarding `O=C(NCc1ncc(C(F)(F)F)cc1Cl)c1ccc2c(c1)C1(CCS(=O)(=O)CC1)[C@@H](C1CC1)N2S(=O)(=O)c1ccc(F)cc1` [BAY-786], at D(1A) dopamine receptor [1], the Ki came to 10 µM. For the same molecule, the IC50 in series [2] is 2.4 µM (not active).

Broadly, the inhibition is the drop in the measured response relative to a control, in per cent. Consider `O=C(NCc1ncc(C(F)(F)F)cc1Cl)c1ccc2c(c1)C1(CCS(=O)(=O)CC1)[C@H](C1CC1)N2S(=O)(=O)c1ccc(F)cc1` [BAY-784], for which the inhibition in the series filed under Rattus norvegicus [3] was 16%; in series [4], 9%; in the series filed under Mus musculus, 1%; in series [6], -5%; in series [7], 0%; in series [8], 50%. Moreover, the inhibition on D(1A) dopamine receptor [9] is 6%; in series [10] it was -5%; in series [11], 9%; in series [12], 56%; in the series filed under Sus scrofa, 0%; in series [13], 25%. Moreover, the inhibition is 14% in [14]; 16% in [15]; 7.97% in the series filed under Rattus norvegicus [16]; -5% in series [17]; 5% in [18]; 1% in series [19]. The figures for the inhibition at 10 µM (in [5]; at CYP2C9) were -4% (not active) and 32% (not active), respectively.
